Source: patent US10000483B2, “Bone marrow on X chromosome kinase (BMX) inhibitors and uses thereof” (Dana-Farber Cancer Institute, Inc., priority 2012, dated 2018)

Columns and labels:
[1] = molecular target: MKNK2 (Homo sapiens (Human), UniProt Q9HBH9); experiment: Kinase panel at 1 uM (Table 9); type: binding; settings: read-out: % inhibition at 1 uM, MKNK2
From the text: (§1) Screening hits are identified by measuring the amount of protein captured in test versus control samples by using a quantitative, precise, and ultra-sensitive qPCR method that detects the associated DNA label.

[2] = molecular target: TAK1 (Homo sapiens (Human), UniProt O43318); experiment: Kinase panel at 1 uM (Table 9); type: binding; settings: read-out: % inhibition at 1 uM, TAK1
TAK1, sequence (O43318 whole entry): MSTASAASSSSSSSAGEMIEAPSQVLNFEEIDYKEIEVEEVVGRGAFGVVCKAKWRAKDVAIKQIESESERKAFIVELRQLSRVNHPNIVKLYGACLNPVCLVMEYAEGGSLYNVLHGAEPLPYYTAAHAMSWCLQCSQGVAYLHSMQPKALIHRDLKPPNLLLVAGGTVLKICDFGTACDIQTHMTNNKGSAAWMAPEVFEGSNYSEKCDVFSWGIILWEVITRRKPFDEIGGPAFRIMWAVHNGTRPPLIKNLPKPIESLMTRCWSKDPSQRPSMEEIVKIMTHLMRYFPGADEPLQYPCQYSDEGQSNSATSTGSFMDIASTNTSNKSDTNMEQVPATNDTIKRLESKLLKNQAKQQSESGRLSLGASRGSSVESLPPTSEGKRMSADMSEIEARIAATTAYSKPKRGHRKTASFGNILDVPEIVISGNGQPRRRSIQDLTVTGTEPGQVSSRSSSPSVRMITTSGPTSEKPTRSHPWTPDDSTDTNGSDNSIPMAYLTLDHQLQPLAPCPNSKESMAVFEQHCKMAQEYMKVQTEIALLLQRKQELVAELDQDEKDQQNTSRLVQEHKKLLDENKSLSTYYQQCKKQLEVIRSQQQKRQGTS
From the text: as §1

[3] = system: TEL-JAK2 transformed Ba/F3 cells; experiment: cells; settings: Mus musculus, BaF3, read-out: GI50, TEL-JAK2
[4] = molecular target: CLK2 (Homo sapiens (Human), UniProt P49760); experiment: DiscoverX binding assay; settings: read-out: % inhibition at 1 uM, CLK2
CLK2, sequence (P49760 whole entry): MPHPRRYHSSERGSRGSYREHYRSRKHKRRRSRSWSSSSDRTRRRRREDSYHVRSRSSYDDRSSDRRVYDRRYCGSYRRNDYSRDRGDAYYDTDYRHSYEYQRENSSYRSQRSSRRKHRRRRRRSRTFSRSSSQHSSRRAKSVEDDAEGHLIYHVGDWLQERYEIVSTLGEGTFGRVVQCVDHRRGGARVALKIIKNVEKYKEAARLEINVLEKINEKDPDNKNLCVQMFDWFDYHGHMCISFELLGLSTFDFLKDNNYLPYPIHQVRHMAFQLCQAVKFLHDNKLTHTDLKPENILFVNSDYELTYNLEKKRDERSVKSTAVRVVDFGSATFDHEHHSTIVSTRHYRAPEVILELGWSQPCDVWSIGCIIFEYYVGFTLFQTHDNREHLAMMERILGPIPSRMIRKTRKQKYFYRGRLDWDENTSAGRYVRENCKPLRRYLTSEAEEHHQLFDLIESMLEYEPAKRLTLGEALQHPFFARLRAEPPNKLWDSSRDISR
From the text: as §1

[5] = molecular target: JNK3 (Homo sapiens (Human), UniProt P53779); experiment: Kinase panel at 1 uM (Table 9); type: binding; settings: read-out: % inhibition at 1 uM, JNK3
JNK3, sequence (P53779 whole entry): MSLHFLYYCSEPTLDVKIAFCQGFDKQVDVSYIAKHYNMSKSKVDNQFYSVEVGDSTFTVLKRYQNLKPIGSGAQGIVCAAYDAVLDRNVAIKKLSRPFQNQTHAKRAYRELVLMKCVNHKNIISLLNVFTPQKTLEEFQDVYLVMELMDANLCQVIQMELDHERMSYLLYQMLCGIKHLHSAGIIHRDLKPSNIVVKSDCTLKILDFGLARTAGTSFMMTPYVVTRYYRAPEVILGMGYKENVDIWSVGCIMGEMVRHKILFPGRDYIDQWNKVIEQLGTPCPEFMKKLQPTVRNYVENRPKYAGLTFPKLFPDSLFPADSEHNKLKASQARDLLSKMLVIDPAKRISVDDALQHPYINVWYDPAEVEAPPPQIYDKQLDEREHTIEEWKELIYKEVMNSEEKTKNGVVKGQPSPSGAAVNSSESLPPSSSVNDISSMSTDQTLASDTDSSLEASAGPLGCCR
From the text: as §1

[6] = molecular target: ITK (Homo sapiens (Human), UniProt Q08881); experiment: DiscoverX binding assay
From the text: as §1

[7] = molecular target: DYRK2 (Homo sapiens (Human), UniProt Q92630); experiment: Kinase panel at 1 uM (Table 9); type: binding; settings: read-out: % inhibition at 1 uM, DYRK2
From the text: as §1

[8] = molecular target: BMX (Homo sapiens (Human), UniProt P51813); experiment: DiscoverX binding assay
From the text: as §1

[9] = system: TEL-JAK3 transformed Ba/F3 cells; experiment: cells; settings: Mus musculus, BaF3, read-out: GI50, TEL-JAK3 (+IL-3)
[10] = molecular target: IRAK3 (Homo sapiens (Human), UniProt Q9Y616); experiment: Kinase panel at 1 uM (Table 9); type: binding; settings: read-out: % inhibition at 1 uM, IRAK3
IRAK3, sequence (Q9Y616 whole entry): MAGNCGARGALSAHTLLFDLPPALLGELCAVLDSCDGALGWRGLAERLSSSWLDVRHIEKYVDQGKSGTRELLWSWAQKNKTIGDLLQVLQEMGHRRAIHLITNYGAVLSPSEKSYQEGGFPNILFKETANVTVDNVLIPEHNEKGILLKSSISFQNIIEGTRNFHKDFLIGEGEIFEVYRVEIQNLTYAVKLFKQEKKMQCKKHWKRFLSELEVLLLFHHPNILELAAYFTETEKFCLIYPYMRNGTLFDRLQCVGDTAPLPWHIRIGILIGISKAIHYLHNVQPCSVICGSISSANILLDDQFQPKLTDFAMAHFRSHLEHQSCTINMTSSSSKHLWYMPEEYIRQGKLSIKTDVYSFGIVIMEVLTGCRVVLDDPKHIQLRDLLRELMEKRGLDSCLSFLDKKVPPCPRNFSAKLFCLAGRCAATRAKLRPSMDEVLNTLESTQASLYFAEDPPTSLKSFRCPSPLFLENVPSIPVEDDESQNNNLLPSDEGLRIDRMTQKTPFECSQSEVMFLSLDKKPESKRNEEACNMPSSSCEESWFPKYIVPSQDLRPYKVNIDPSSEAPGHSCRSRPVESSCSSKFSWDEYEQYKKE
From the text: as §1

[11] = system: VACP cells; experiment: cells; settings: read-out: GI50, VACP
Method: (§2) Data were normalized to control group (DMSO) and represented by the mean of at least two independent measurement with standard error <20%. GI50 were calculated using Prism 5.0 (GraphPad Software, San Diego, Calif.).

[12] = molecular target: BLK (Homo sapiens (Human), UniProt P51451); experiment: DiscoverX binding assay
BLK, sequence (P51451 whole entry): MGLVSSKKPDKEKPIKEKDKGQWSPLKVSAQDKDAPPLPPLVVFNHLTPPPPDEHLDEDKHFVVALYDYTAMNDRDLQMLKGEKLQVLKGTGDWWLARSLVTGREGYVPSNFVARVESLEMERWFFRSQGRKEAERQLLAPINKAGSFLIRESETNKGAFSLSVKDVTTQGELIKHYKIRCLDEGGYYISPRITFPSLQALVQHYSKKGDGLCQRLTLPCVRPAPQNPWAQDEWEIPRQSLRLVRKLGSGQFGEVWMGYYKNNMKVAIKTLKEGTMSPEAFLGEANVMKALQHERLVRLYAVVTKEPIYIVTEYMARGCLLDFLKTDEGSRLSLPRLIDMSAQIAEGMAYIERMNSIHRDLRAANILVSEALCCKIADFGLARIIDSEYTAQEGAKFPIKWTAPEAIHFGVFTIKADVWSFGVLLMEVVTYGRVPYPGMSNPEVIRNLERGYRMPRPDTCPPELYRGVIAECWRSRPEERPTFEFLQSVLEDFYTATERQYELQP
From the text: as §1

[13] = system: TEL-BMX transformed Ba/F3 cells; experiment: cells; settings: Mus musculus, BaF3, read-out: GI50, TEL-BMX
[14] = molecular target: EGFR(T790M) (Homo sapiens (Human), UniProt P00533, T790M); experiment: DiscoverX binding assay
From the text: as §1

[15] = system: FAK pY576/577; experiment: FAK pYpY phosphorylation blot in RV1 cells cotransfected with BMX and FAK; type: cell-based; settings: FIG. 17
[16] = molecular target: YSK4 (Homo sapiens (Human), UniProt Q56UN5); experiment: Kinase panel at 1 uM (Table 9); type: binding; settings: read-out: % inhibition at 1 uM, YSK4
YSK4, sequence (Q56UN5 whole entry): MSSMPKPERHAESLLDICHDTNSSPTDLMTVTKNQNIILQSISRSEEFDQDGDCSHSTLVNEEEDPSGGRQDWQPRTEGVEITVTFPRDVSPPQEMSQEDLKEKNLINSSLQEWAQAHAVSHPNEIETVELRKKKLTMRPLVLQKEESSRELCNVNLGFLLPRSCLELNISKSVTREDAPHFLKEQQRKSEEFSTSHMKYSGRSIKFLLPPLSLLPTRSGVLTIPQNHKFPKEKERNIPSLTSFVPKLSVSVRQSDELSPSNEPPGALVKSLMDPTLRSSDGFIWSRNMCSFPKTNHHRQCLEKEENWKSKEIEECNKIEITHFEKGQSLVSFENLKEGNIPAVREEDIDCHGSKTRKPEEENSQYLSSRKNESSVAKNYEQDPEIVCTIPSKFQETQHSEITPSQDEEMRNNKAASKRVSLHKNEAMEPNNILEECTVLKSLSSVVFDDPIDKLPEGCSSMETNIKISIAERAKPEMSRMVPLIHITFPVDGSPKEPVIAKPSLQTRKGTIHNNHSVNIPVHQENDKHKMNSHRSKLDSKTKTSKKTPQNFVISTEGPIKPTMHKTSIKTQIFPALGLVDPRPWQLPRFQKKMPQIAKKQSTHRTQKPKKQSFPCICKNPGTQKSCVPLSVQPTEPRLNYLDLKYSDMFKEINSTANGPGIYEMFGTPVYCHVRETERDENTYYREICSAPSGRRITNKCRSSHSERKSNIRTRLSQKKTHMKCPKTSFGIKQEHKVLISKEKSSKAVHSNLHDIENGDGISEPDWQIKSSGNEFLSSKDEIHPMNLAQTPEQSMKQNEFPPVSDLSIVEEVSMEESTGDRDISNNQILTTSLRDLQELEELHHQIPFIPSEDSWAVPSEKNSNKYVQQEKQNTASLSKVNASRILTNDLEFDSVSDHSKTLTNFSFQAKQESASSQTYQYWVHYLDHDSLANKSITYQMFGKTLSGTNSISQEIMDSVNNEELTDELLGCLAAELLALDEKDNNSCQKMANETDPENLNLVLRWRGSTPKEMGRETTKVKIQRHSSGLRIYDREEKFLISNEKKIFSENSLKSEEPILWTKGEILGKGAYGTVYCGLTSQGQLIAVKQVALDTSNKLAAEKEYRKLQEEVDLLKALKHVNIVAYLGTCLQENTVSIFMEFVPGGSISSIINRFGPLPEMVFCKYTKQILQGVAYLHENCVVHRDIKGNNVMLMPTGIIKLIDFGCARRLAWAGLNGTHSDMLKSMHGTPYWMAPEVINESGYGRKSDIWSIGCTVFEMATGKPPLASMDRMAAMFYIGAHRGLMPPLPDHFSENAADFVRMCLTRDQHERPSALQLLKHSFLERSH
From the text: as §1

[17] = system: C4-2 cells; experiment: cells; settings: C4-2, read-out: GI50, C4-2
Method: as §2

[18] = system: WT-Ba/F3 cells; experiment: cells; settings: Mus musculus, BaF3, read-out: GI50, WT-Ba/F3
[19] = molecular target: DYRK1B (Homo sapiens (Human), UniProt Q9Y463); experiment: Kinase panel at 1 uM (Table 9); type: binding; settings: read-out: % inhibition at 1 uM, DYRK1B
DYRK1B, sequence (Q9Y463 whole entry): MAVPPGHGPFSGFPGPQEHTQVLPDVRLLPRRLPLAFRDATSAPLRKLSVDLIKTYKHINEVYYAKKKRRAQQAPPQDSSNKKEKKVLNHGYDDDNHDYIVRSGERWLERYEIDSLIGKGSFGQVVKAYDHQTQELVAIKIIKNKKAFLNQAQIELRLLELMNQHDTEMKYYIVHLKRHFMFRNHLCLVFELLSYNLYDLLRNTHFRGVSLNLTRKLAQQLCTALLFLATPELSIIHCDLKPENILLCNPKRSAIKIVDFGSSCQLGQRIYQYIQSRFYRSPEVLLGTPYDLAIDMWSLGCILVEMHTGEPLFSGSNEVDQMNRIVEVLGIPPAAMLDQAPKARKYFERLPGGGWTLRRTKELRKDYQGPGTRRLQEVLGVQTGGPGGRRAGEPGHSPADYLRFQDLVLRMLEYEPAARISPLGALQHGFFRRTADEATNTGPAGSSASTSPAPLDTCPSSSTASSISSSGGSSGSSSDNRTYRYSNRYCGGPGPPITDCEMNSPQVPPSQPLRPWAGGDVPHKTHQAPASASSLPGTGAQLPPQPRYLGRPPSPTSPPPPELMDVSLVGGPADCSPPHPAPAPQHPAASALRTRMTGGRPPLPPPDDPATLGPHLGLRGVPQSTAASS
From the text: as §1

[20] = molecular target: mTORC1 (Homo sapiens (Human), UniProt P42345); experiment: Invitrogen Select Screening in vitro kinase assay; type: biochemical
From the text: The in vitro activity of compounds of Formula (I) and (II) in inhibiting BMX and other kinases were obtained using an Invitrogen Select Screening assay as known in the art.

[21] = system: TYK2E957D transformed Ba/F3 cells; experiment: cells; settings: Mus musculus, BaF3, read-out: GI50, TYK2E957D

C=CC(=O)Nc1cc(-n2c(=O)ccc3cnc4ccc(-c5ccc(NS(C)(=O)=O)cc5)cc4c32)ccc1C [I-14]
inhibition at 1 µM [1]: 100%
inhibition at 1 µM [2]: 83%
GI50 [3]: 5.83 µM
inhibition at 1 µM [4]: 100%
inhibition at 1 µM [5]: 100%
Percent Control, ITK [6]: 52%
inhibition at 1 µM [7]: 100%
Percent Control, BMX [8]: 29%
GI50 [9]: 7.77 µM
inhibition at 1 µM [10]: 73%
GI50 [11]: 2.46 µM
Percent Control, BLK ([12]; DiscoverX binding): 40%
inhibition at 1 µM ([12]; read-out: % inhibition at 1 uM, BLK): 40%
GI50 [13]: 0.025 µM
Percent Control, EGFR(T790M) ([14]; DiscoverX binding): 2.1%
inhibition at 1 µM ([14]; read-out: % inhibition at 1 uM, EGFR(T790M)): 11%
BMX mediated phosphorylation of pYpY site on FAK [15]: inhibits BMX mediated phosphorylation of pYpY site on FAK
inhibition at 1 µM [16]: 100%
GI50 [17]: > 10 µM
GI50 [18]: > 10 µM
inhibition at 1 µM [19]: 100%
IC50 [20]: 7.4 µM
GI50 [21]: 6.09 µM
